# Data reported in PubChem BioAssay (NCI).
#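 Five concentrations, 48 hours, 96-well plates. TGI marks complete inhibition of growth.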
# Columns and labels:
# Test in all cases: DTP human tumour cell line panel, 48 h
# 786-0 renal = test system: 786-0 renal
# A498 renal = test system: A498 renal
# A549 NSCLC = test system: A549 NSCLC
# ACHN renal = test system: ACHN renal
# BT-549 breast = test system: BT-549 breast
# CAKI-1 renal = test system: CAKI-1 renal
# CCRF-CEM leukemia = test system: CCRF-CEM leukemia
# COLO 205 colon = test system: COLO 205 colon
# DU-145 prostate = test system: DU-145 prostate
# EKVX NSCLC = test system: EKVX NSCLC
# HCC-2998 colon = test system: HCC-2998 colon
# HCT-116 colon = test system: HCT-116 colon
# HCT-15 colon = test system: HCT-15 colon
# HOP-62 NSCLC = test system: HOP-62 NSCLC
# HS 578T breast = test system: HS 578T breast
# HT29 colon = test system: HT29 colon
# IGROV1 ovarian = test system: IGROV1 ovarian
# KM12 colon = test system: KM12 colon
# LOX IMVI melanoma = test system: LOX IMVI melanoma
# M14 melanoma = test system: M14 melanoma
# MALME-3M melanoma = test system: MALME-3M melanoma
# MCF7 breast = test system: MCF7 breast
# MDA-MB-231 breast = test system: MDA-MB-231 breast
# MDA-MB-435 = test system: MDA-MB-435
# MDA-N = test system: MDA-N
# MOLT-4 leukemia = test system: MOLT-4 leukemia
# NCI-H226 lung = test system: NCI-H226 lung
# NCI-H23 lung = test system: NCI-H23 lung
# NCI-H460 lung = test system: NCI-H460 lung
# NCI-H522 lung = test system: NCI-H522 lung
# NCI/ADR-RES ovarian = test system: NCI/ADR-RES ovarian
# OVCAR-3 ovarian = test system: OVCAR-3 ovarian
# OVCAR-4 ovarian = test system: OVCAR-4 ovarian
# OVCAR-5 ovarian = test system: OVCAR-5 ovarian
# OVCAR-8 ovarian = test system: OVCAR-8 ovarian
# PC-3 prostate = test system: PC-3 prostate
# RPMI-8226 leukemia = test system: RPMI-8226 leukemia
# RXF 393 renal = test system: RXF 393 renal
# SF-268 CNS = test system: SF-268 CNS
# SF-295 CNS = test system: SF-295 CNS
# SF-539 CNS = test system: SF-539 CNS
# SK-MEL-2 melanoma = test system: SK-MEL-2 melanoma
# SK-MEL-28 melanoma = test system: SK-MEL-28 melanoma
# SK-MEL-5 melanoma = test system: SK-MEL-5 melanoma
# SK-OV-3 ovarian = test system: SK-OV-3 ovarian
# SN12C renal = test system: SN12C renal
# SNB-75 CNS = test system: SNB-75 CNS
# SW-620 colon = test system: SW-620 colon
# T-47D breast = test system: T-47D breast
# TK-10 renal = test system: TK-10 renal
# U251 CNS = test system: U251 CNS
# UACC-257 melanoma = test system: UACC-257 melanoma
# UACC-62 melanoma = test system: UACC-62 melanoma
# UO-31 renal = test system: UO-31 renal
# HL-60(TB) leukemia = test system: HL-60(TB) leukemia
# K-562 leukemia = test system: K-562 leukemia
# SNB-19 CNS = test system: SNB-19 CNS
# SR leukemia = test system: SR leukemia
# HOP-92 NSCLC = test system: HOP-92 NSCLC
compound,measurement,setting,value
NC(Cc1ccc(S(=O)(=O)O)cc1)C(=O)NC(Cc1ccc(S(=O)(=O)O)cc1)C(=O)NC(Cc1ccc(S(=O)(=O)O)cc1)C(=O)NC(Cc1ccc(S(=O)(=O)O)cc1)C(=O)O (centres undefined),TGI,786-0 renal,> 100 µM
same,TGI,A498 renal,> 100 µM
same,TGI,A549 NSCLC,> 100 µM
same,TGI,ACHN renal,> 100 µM
same,TGI,BT-549 breast,> 100 µM
same,TGI,CAKI-1 renal,> 100 µM
same,TGI,CCRF-CEM leukemia,> 100 µM
same,TGI,COLO 205 colon,> 100 µM
same,TGI,DU-145 prostate,> 100 µM
same,TGI,EKVX NSCLC,> 100 µM
same,TGI,HCC-2998 colon,> 100 µM
same,TGI,HCT-116 colon,> 100 µM
same,TGI,HCT-15 colon,> 100 µM
same,TGI,HOP-62 NSCLC,> 100 µM
same,TGI,HS 578T breast,> 100 µM
same,TGI,HT29 colon,> 100 µM
same,TGI,IGROV1 ovarian,> 100 µM
same,TGI,KM12 colon,> 100 µM
same,TGI,LOX IMVI melanoma,> 100 µM
same,TGI,M14 melanoma,> 100 µM
same,TGI,MALME-3M melanoma,> 100 µM
same,TGI,MCF7 breast,> 100 µM
same,TGI,MDA-MB-231 breast,> 100 µM
same,TGI,MDA-MB-435,> 100 µM
same,TGI,MDA-N,> 100 µM
same,TGI,MOLT-4 leukemia,> 100 µM
same,TGI,NCI-H226 lung,> 100 µM
same,TGI,NCI-H23 lung,> 100 µM
same,TGI,NCI-H460 lung,> 100 µM
same,TGI,NCI-H522 lung,> 100 µM
same,TGI,NCI/ADR-RES ovarian,> 100 µM
same,TGI,OVCAR-3 ovarian,> 100 µM
same,TGI,OVCAR-4 ovarian,> 100 µM
same,TGI,OVCAR-5 ovarian,> 100 µM
same,TGI,OVCAR-8 ovarian,> 100 µM
same,TGI,PC-3 prostate,> 100 µM
same,TGI,RPMI-8226 leukemia,> 100 µM
same,TGI,RXF 393 renal,> 100 µM
same,TGI,SF-268 CNS,> 100 µM
same,TGI,SF-295 CNS,> 100 µM
same,TGI,SF-539 CNS,> 100 µM
same,TGI,SK-MEL-2 melanoma,> 100 µM
same,TGI,SK-MEL-28 melanoma,> 100 µM
same,TGI,SK-MEL-5 melanoma,> 100 µM
same,TGI,SK-OV-3 ovarian,> 100 µM
same,TGI,SN12C renal,> 100 µM
same,TGI,SNB-75 CNS,> 100 µM
same,TGI,SW-620 colon,> 100 µM
same,TGI,T-47D breast,> 100 µM
same,TGI,TK-10 renal,> 100 µM
same,TGI,U251 CNS,> 100 µM
same,TGI,UACC-257 melanoma,> 100 µM
same,TGI,UACC-62 melanoma,> 100 µM
same,TGI,UO-31 renal,> 100 µM
CCN(CC)C1Oc2cc3c(cc2C(c2cccc(OC)c2OC)C1C)OCO3 (centres undefined),TGI,786-0 renal,22.7 µM
same,TGI,A498 renal,23.3 µM
same,TGI,A549 NSCLC,25.8 µM
same,TGI,ACHN renal,29.5 µM
same,TGI,BT-549 breast,23.6 µM
same,TGI,CAKI-1 renal,14.2 µM
same,TGI,CCRF-CEM leukemia,8.48 µM
same,TGI,COLO 205 colon,17 µM
same,TGI,DU-145 prostate,23.9 µM
same,TGI,EKVX NSCLC,52.3 µM
same,TGI,HCC-2998 colon,25.8 µM
same,TGI,HCT-116 colon,12.8 µM
same,TGI,HCT-15 colon,> 100 µM
same,TGI,HL-60(TB) leukemia,4.63 µM
same,TGI,HOP-62 NSCLC,30.2 µM
same,TGI,HS 578T breast,28.8 µM
same,TGI,HT29 colon,24.8 µM
same,TGI,IGROV1 ovarian,29.3 µM
same,TGI,K-562 leukemia,14.4 µM
same,TGI,KM12 colon,29.5 µM
same,TGI,LOX IMVI melanoma,21.6 µM
same,TGI,M14 melanoma,46.7 µM
same,TGI,MALME-3M melanoma,33.5 µM
same,TGI,MCF7 breast,60.8 µM
same,TGI,MDA-MB-231 breast,35.4 µM
same,TGI,MDA-MB-435,45.6 µM
same,TGI,MDA-N,50.5 µM
same,TGI,MOLT-4 leukemia,23.7 µM
same,TGI,NCI-H226 lung,9.24 µM
same,TGI,NCI-H23 lung,35.7 µM
same,TGI,NCI-H460 lung,17.7 µM
same,TGI,NCI-H522 lung,26.3 µM
same,TGI,OVCAR-3 ovarian,9.97 µM
same,TGI,OVCAR-5 ovarian,48.6 µM
same,TGI,OVCAR-8 ovarian,22.6 µM
same,TGI,PC-3 prostate,24.4 µM
same,TGI,RPMI-8226 leukemia,16.4 µM
same,TGI,RXF 393 renal,11.8 µM
same,TGI,SF-268 CNS,> 100 µM
same,TGI,SF-295 CNS,16.3 µM
same,TGI,SF-539 CNS,28.2 µM
same,TGI,SK-MEL-2 melanoma,30.2 µM
same,TGI,SK-MEL-28 melanoma,50.6 µM
same,TGI,SK-MEL-5 melanoma,21.3 µM
same,TGI,SK-OV-3 ovarian,58.5 µM
same,TGI,SN12C renal,> 100 µM
same,TGI,SNB-19 CNS,71.4 µM
same,TGI,SNB-75 CNS,44.7 µM
same,TGI,SR leukemia,3.3 µM
same,TGI,SW-620 colon,77 µM
same,TGI,T-47D breast,28.5 µM
same,TGI,TK-10 renal,46.3 µM
same,TGI,U251 CNS,32 µM
same,TGI,UACC-257 melanoma,24.9 µM
same,TGI,UACC-62 melanoma,30.1 µM
same,TGI,UO-31 renal,40.5 µM
C=CCOc1ccc(C2C(C(=O)OC)C(=O)CC(O)(c3ccccc3)C2C(=O)OC)cc1OC (centres undefined),TGI,786-0 renal,39 µM
same,TGI,A498 renal,76.4 µM
same,TGI,A549 NSCLC,> 100 µM
same,TGI,ACHN renal,> 100 µM
same,TGI,BT-549 breast,> 100 µM
same,TGI,CAKI-1 renal,> 100 µM
same,TGI,CCRF-CEM leukemia,> 100 µM
same,TGI,COLO 205 colon,> 100 µM
same,TGI,DU-145 prostate,> 100 µM
same,TGI,EKVX NSCLC,> 100 µM
same,TGI,HCC-2998 colon,> 100 µM
same,TGI,HCT-116 colon,49.8 µM
same,TGI,HCT-15 colon,> 100 µM
same,TGI,HL-60(TB) leukemia,> 100 µM
same,TGI,HOP-62 NSCLC,> 100 µM
same,TGI,HOP-92 NSCLC,38.5 µM
same,TGI,HT29 colon,> 100 µM
same,TGI,IGROV1 ovarian,> 100 µM
same,TGI,K-562 leukemia,> 100 µM
same,TGI,KM12 colon,> 100 µM
same,TGI,LOX IMVI melanoma,> 100 µM
same,TGI,MALME-3M melanoma,> 100 µM
same,TGI,MCF7 breast,61.3 µM
same,TGI,MDA-MB-231 breast,38.2 µM
same,TGI,MDA-MB-435,> 100 µM
same,TGI,MDA-N,> 100 µM
same,TGI,MOLT-4 leukemia,> 100 µM
same,TGI,NCI-H226 lung,60.3 µM
same,TGI,NCI-H23 lung,> 100 µM
same,TGI,NCI-H460 lung,> 100 µM
same,TGI,NCI-H522 lung,50.5 µM
same,TGI,NCI/ADR-RES ovarian,66 µM
same,TGI,OVCAR-3 ovarian,> 100 µM
same,TGI,OVCAR-4 ovarian,69.5 µM
same,TGI,OVCAR-5 ovarian,> 100 µM
same,TGI,OVCAR-8 ovarian,50.4 µM
same,TGI,PC-3 prostate,> 100 µM
same,TGI,RXF 393 renal,37.2 µM
same,TGI,SF-268 CNS,52.7 µM
same,TGI,SF-295 CNS,> 100 µM
same,TGI,SK-MEL-2 melanoma,> 100 µM
same,TGI,SK-MEL-28 melanoma,> 100 µM
same,TGI,SK-MEL-5 melanoma,> 100 µM
same,TGI,SN12C renal,> 100 µM
same,TGI,SNB-19 CNS,> 100 µM
same,TGI,SNB-75 CNS,98.3 µM
same,TGI,SR leukemia,> 100 µM
same,TGI,SW-620 colon,> 100 µM
same,TGI,T-47D breast,46.9 µM
same,TGI,TK-10 renal,> 100 µM
same,TGI,U251 CNS,> 100 µM
same,TGI,UACC-257 melanoma,> 100 µM
same,TGI,UACC-62 melanoma,> 100 µM
same,TGI,UO-31 renal,61.8 µM
